Reference: PMC9455146, “Effects of Novel Photosynthetic Inhibitor [CuL2]Br2 Complex on Photosystem II Activity in Spinach” (Cells, 2022)

Molecular target: T1, D1-protein of the PSII reaction center (QB-plastoquinone-herbicide-binding protein) (Spinacia oleracea, UniProt P69560)
T1 construct: gene psbA; native protein in isolated spinach thylakoids; with photosystem II complex
Assay: PSII chlorophyll fluorescence (PAM) in isolated thylakoids; block of Light 1-induced QA- re-oxidation
Assay type: biochemical

CN(C)C(=O)Nc1ccc(Cl)c(Cl)c1 [DCMU, 3-(3,4-dichlorophenyl)-1,1-dimethylurea]
Concentration blocking Light 1-induced QA- re-oxidation: 0.5 µM
